Laboratory results from ChEMBL document CHEMBL3390848, “Affinity selection and sequence-activity relationships of HIV-1 membrane fusion inhibitors directed at the drug-resistant variants” (Medchemcomm, 2010).
Residues, ends and D or L forms follow the SMILES beside them.

Legend:
[1] = tested on: Human immunodeficiency virus 1; experiment: Binding affinity to HIV1 His-tagged N-terminal heptad repeat of envelope glycoprotein gp41 assessed as recovery of N36-drug complex at 6 uM after 2 hrs by LC-MS analysis
[2] = tested on: Human immunodeficiency virus 1; experiment: Thermal stability of HIV1 envelope glycoprotein gp41 His-tagged N-terminal heptad repeat N36 N43D mutant-drug complex assessed as thermal unfolding transition state by measuring molar ellipticity at 4 to 90 degC by circular dichroic spectra analysis
[3] = tested on: Human immunodeficiency virus 1; experiment: Binding affinity to HIV1 His-tagged N-terminal heptad repeat of envelope glycoprotein gp41 assessed as recovery of N36-drug complex at 1 uM after 2 hrs by LC-MS analysis
[4] = tested on: Human immunodeficiency virus 1; experiment: Binding affinity to HIV1 His-tagged N-terminal heptad repeat of envelope glycoprotein gp41 assessed as recovery of N36 N43D mutant-drug complex after 2 hrs by LC-MS analysis; set-up: concentration or dose not given beside the values
[5] = tested on: Human immunodeficiency virus 1; experiment: Thermal stability of HIV1 envelope glycoprotein gp41 His-tagged N-terminal heptad repeat N36-drug complex assessed as thermal unfolding transition state by measuring molar ellipticity at 4 to 90 degC by circular dichroic spectra analysis
[6] = tested on: Human immunodeficiency virus 1; experiment: Binding affinity to HIV1 His-tagged N-terminal heptad repeat of envelope glycoprotein gp41 assessed as recovery of N36-drug complex at 10 uM after 2 hrs by LC-MS analysis
[7] = tested on: Envelope glycoprotein gp160 (Human immunodeficiency virus 1), Q72502 [V38A]; experiment: Thermal stability of HIV1 envelope glycoprotein gp41 His-tagged N-terminal heptad repeat N36 V38A mutant-drug complex assessed as thermal unfolding transition state by measuring molar ellipticity at 4 to 90 degC by circular dichroic spectra analysis
[8] = tested on: Human immunodeficiency virus 1; experiment: Antiviral activity against HIV1 NL4-3 harboring gp41 D36G mutant infected in human HeLa cells expressing CD4-LTR-beta-gal assessed as inhibition of viral replication after 48 hrs by MAGI assay; format: functional, organism-based
[9] = tested on: Envelope glycoprotein gp160 (Human immunodeficiency virus 1), Q72502 [V38A]; experiment: Binding affinity to HIV1 His-tagged N-terminal heptad repeat of envelope glycoprotein gp41 assessed as recovery of N36 V38A mutant-drug complex after 2 hrs by LC-MS analysis; set-up: concentration or dose not given beside the values
[10] = tested on: Human immunodeficiency virus 1; experiment: Binding affinity to HIV1 His-tagged N-terminal heptad repeat of envelope glycoprotein gp41 assessed as recovery of N36-drug complex after 2 hrs by LC-MS analysis; set-up: concentration or dose not given beside the values
[11] = tested on: Human immunodeficiency virus 1; experiment: Binding affinity to HIV1 His-tagged N-terminal heptad repeat of envelope glycoprotein gp41 assessed as recovery of N36-drug complex at 0.6 uM after 2 hrs by LC-MS analysis

| SMILES | Activity [1] | Tm [2] | Activity [3] | Activity [4] | Tm [5] | Activity [6] | Tm [7] | EC50 [8] | Activity [9] | Activity [10] | Activity [11] |
| --- | --- | --- | --- | --- | --- | --- | --- | --- | --- | --- | --- |
| CC[C@H](C)[C@H](NC(=O)[C@H](CC(C)C)NC(=O)[C@H](CCC(=O)O)NC(=O)[C@H](CCC(=O)O)NC(=O)[C@@H](NC(=O)[C@H](CCCCN)NC(=O)[C@H](CCCCN)NC(=O)[C@@H](NC(=O)[C@H](Cc1ccc(O)cc1)NC(=O)[C@H](CCC(=O)O)NC(=O)[C@H](CCC(=O)O)NC(=O)[C@@H](NC(=O)[C@H](CCCCN)NC(=O)[C@H](CCCCN)NC(=O)[C@H](CC(=O)O)NC(=O)[C@H](Cc1c[nH]c2ccccc12)NC(=O)[C@H](CCC(=O)O)NC(=O)[C@H](CCC(=O)O)NC(=O)[C@H](Cc1c[nH]c2ccccc12)NC(C)=O)[C@@H](C)CC)[C@@H](C)O)[C@@H](C)CC)C(=O)N[C@@H](CCCCN)C(=O)N[C@@H](CCCCN)C(=O)N[C@@H](CO)C(=O)N[C@@H](CCC(=O)O)C(=O)N[C@@H](CCC(=O)O)C(=O)N[C@@H](CCC(N)=O)C(=O)N[C@@H](CCC(N)=O)C(=O)N[C@@H](CCCCN)C(=O)N[C@@H](CCCCN)C(=O)N[C@@H](CC(N)=O)C(=O)N[C@@H](CCC(=O)O)C(=O)N[C@@H](CCC(=O)O)C(=O)N[C@@H](CCC(=O)O)C(=O)N[C@@H](CC(C)C)C(=O)N[C@@H](CCCCN)C(=O)N[C@@H](CCCCN)C(N)=O (Ac-WEEWDKKIEEYTKKIEELIKKSEEQQKKNEEELKK-NH2) | 19.2% | 69.9 °C | 11.5% | 10.9% | 81.6 °C | 22.8% | 72.6 °C | 1 nM | 11.8% | 10.1% | 5.8% |
| CC[C@H](C)[C@H](NC(=O)[C@H](CC(C)C)NC(=O)[C@H](CCC(=O)O)NC(=O)[C@H](CCC(=O)O)NC(=O)[C@@H](NC(=O)[C@H](CCCCN)NC(=O)[C@H](CCCCN)NC(=O)[C@@H](NC(=O)[C@H](Cc1ccc(O)cc1)NC(=O)[C@H](CCC(=O)O)NC(=O)[C@H](CCC(=O)O)NC(=O)[C@@H](NC(=O)[C@H](CCCCN)NC(=O)[C@H](CCCCN)NC(=O)[C@H](CC(=O)O)NC(=O)[C@H](Cc1c[nH]c2ccccc12)NC(=O)[C@H](CCC(=O)O)NC(=O)[C@H](CCC(=O)O)NC(=O)[C@H](Cc1c[nH]c2ccccc12)NC(C)=O)[C@@H](C)CC)[C@@H](C)O)[C@@H](C)CC)C(=O)N[C@@H](CCCCN)C(=O)N[C@@H](CCCCN)C(=O)N[C@@H](C)C(=O)N[C@@H](CCC(=O)O)C(=O)N[C@@H](CCC(=O)O)C(=O)N[C@@H](CCC(N)=O)C(=O)N[C@@H](CCC(N)=O)C(=O)N[C@@H](CCCCN)C(=O)N[C@@H](CCCCN)C(=O)N[C@@H](CC(N)=O)C(=O)N[C@@H](CCC(=O)O)C(=O)N[C@@H](CCC(=O)O)C(=O)N[C@@H](CCC(=O)O)C(=O)N[C@@H](CC(C)C)C(=O)N[C@@H](CCCCN)C(=O)N[C@@H](CCCCN)C(N)=O (Ac-WEEWDKKIEEYTKKIEELIKKAEEQQKKNEEELKK-NH2) | 22.5% | 74.4 °C | 11.5% | 12.9% | 86.4 °C | 30.7% | 76.1 °C | 0.2 nM | 11.4% |  | 5.3% |
| CC[C@H](C)[C@H](NC(=O)[C@H](CC(C)C)NC(=O)[C@H](CCC(=O)O)NC(=O)[C@H](CCC(=O)O)NC(=O)[C@@H](NC(=O)[C@H](CCCCN)NC(=O)[C@H](CCCCN)NC(=O)[C@@H](NC(=O)[C@H](Cc1ccc(O)cc1)NC(=O)[C@H](CCC(=O)O)NC(=O)[C@H](CCC(=O)O)NC(=O)[C@@H](NC(=O)[C@H](CCCCN)NC(=O)[C@H](CCCCN)NC(=O)[C@H](CC(=O)O)NC(=O)[C@H](Cc1c[nH]c2ccccc12)NC(=O)[C@H](CCC(=O)O)NC(=O)[C@H](CCC(=O)O)NC(=O)[C@H](Cc1c[nH]c2ccccc12)NC(C)=O)[C@@H](C)CC)[C@@H](C)O)[C@@H](C)CC)C(=O)N[C@@H](CCCCN)C(=O)N[C@@H](CCCCN)C(=O)N[C@@H](Cc1c[nH]c2ccccc12)C(=O)N[C@@H](CCC(=O)O)C(=O)N[C@@H](CCC(=O)O)C(=O)N[C@@H](CCC(N)=O)C(=O)N[C@@H](CCC(N)=O)C(=O)N[C@@H](CCCCN)C(=O)N[C@@H](CCCCN)C(=O)N[C@@H](CC(N)=O)C(=O)N[C@@H](CCC(=O)O)C(=O)N[C@@H](CCC(=O)O)C(=O)N[C@@H](CCC(=O)O)C(=O)N[C@@H](CC(C)C)C(=O)N[C@@H](CCCCN)C(=O)N[C@@H](CCCCN)C(N)=O (Ac-WEEWDKKIEEYTKKIEELIKKWEEQQKKNEEELKK-NH2) | 0.3% | 66 °C | 0.9% | 2.4% | 66.4 °C | 0.5% | 64.6 °C | 3.1 nM | 1% |  | 6.2% |
| CC[C@H](C)[C@H](NC(=O)[C@H](CCCCN)NC(=O)[C@H](CCCCN)NC(=O)[C@H](CC(=O)O)NC(=O)[C@H](Cc1c[nH]c2ccccc12)NC(=O)[C@H](CCC(=O)O)NC(=O)[C@H](CCC(=O)O)NC(=O)[C@H](Cc1c[nH]c2ccccc12)NC(C)=O)C(=O)N[C@@H](CCC(=O)O)C(=O)N[C@@H](CCC(=O)O)C(=O)N[C@@H](Cc1ccc(O)cc1)C(=O)N[C@H](C(=O)N[C@@H](CCCCN)C(=O)N[C@@H](CCCCN)C(=O)N[C@H](C(=O)N[C@@H](CCC(=O)O)C(=O)N[C@@H](CCC(=O)O)C(=O)N[C@@H](CC(C)C)C(=O)N[C@H](C(=O)N[C@@H](CCCCN)C(=O)N[C@@H](CCCCN)C(=O)N[C@H](C(=O)N[C@@H](CCC(=O)O)C(=O)N[C@@H](CCC(=O)O)C(=O)N[C@@H](CCC(N)=O)C(=O)N[C@@H](CCC(N)=O)C(=O)N[C@@H](CCCCN)C(=O)N[C@@H](CCCCN)C(=O)N[C@@H](CC(N)=O)C(=O)N[C@@H](CCC(=O)O)C(=O)N[C@@H](CCC(=O)O)C(=O)N[C@@H](CCC(=O)O)C(=O)N[C@@H](CC(C)C)C(=O)N[C@@H](CCCCN)C(=O)N[C@@H](CCCCN)C(N)=O)[C@@H](C)O)[C@@H](C)CC)[C@@H](C)CC)[C@@H](C)O (Ac-WEEWDKKIEEYTKKIEELIKKTEEQQKKNEEELKK-NH2) | 12.8% | 67.5 °C | 11.7% | 9.4% | 79.7 °C | 9% | 70.4 °C | 0.8 nM | 10.8% |  | 5.7% |
